Data: patent EP0496332A1, “Alpha-aminoquinolinoyl-[3]-penicillines, process for their preparation and their use as antibacterial agents” (ARZNEIMITTELWERK DRESDEN GmbH, priority 1991, dated 1992)
≈ marks a conversion by molar mass, not a printed value.

Key:
Assay in all cases: In-vitro test, inhibitory concentration by dilution series
Assay type in all cases: cell-based
Proteus vulgaris OX 19 = conditions: OX19; III = Proteus vulgaris OX 19; step = concentration with no visible growth; read-out: Hemmkonzentration nach Verdünnung (Verdünnungsreihe) (converted)
Text: (§1) Die antibiotische Wirksamkeit erfindungsgemäßer Verbindungen wurde in der üblichen Weise durch Ermittlung der Hemmkonzentrationen nach Verdünnung ermittelt.
(§2) Die erhaltenen Ergebnisse sind in der nachstehenden Tabelle zusammengefaßt.

[1] = system: Pseudomonas aeruginosa SG 137; conditions: SG137; V = Pseudomonas aeruginosa SG 137; step = concentration with no visible growth; read-out: Hemmkonzentration nach Verdünnung (Verdünnungsreihe) (converted)
Text: as §1, §2

[2] = system: Staphylococcus aureus SG 511; conditions: SG511; II = Staphylococcus aureus SG 511; step = concentration with no visible growth; read-out: Hemmkonzentration nach Verdünnung (Verdünnungsreihe) (converted)
Text: as §1, §2

Enterokokken = conditions: XI = Enterokokken, Laborstämme; step = concentration with no visible growth; read-out: Hemmkonzentration nach Verdünnung (Verdünnungsreihe) (converted)
Text: as §1, §2

[3] = system: Salmonella gallinarium ATCC 9184; conditions: ATCC9184; VI = Salmonella gallinarium ATCC 9184; step = concentration with no visible growth; read-out: Hemmkonzentration nach Verdünnung (Verdünnungsreihe) (converted)
Text: as §1, §2

Escherichia coli = conditions: XII = Escherichia coli, Laborstämme; step = concentration with no visible growth; read-out: Hemmkonzentration nach Verdünnung (Verdünnungsreihe) (converted)
Text: as §1, §2

[4] = system: Klebsiella pneumoniae SG 117; conditions: SG117; VII = Klebsiella pneumoniae SG 117; step = concentration with no visible growth; read-out: Hemmkonzentration nach Verdünnung (Verdünnungsreihe) (converted)
Text: as §1, §2

[5] = system: Serratia marcescens SG 621; conditions: SG621; VIII = Serratia marcescens SG 621; step = concentration with no visible growth; read-out: Hemmkonzentration nach Verdünnung (Verdünnungsreihe) (converted)
Text: as §1, §2

Citrobacter freudii = conditions: XIV = Citrobacter freudii, Laborstämme; step = concentration with no visible growth; read-out: Hemmkonzentration nach Verdünnung (Verdünnungsreihe) (converted)
Text: as §1, §2

Bacillus subtilis SG 119 = conditions: SG119; I = Bacillus subtilis SG 119; step = concentration with no visible growth; read-out: Hemmkonzentration nach Verdünnung (Verdünnungsreihe) (converted)
Text: as §1, §2

Enterobacter cloacae = conditions: XIII = Enterobacter cloacae, Laborstämme; step = concentration with no visible growth; read-out: Hemmkonzentration nach Verdünnung (Verdünnungsreihe) (converted)
Text: as §1, §2

[6] = system: Pseudomonas aeruginosa NCTC 10701; conditions: NCTC10701; IV = Pseudomonas aeruginosa NCTC 10701; step = concentration with no visible growth; read-out: Hemmkonzentration nach Verdünnung (Verdünnungsreihe) (converted)
Text: as §1, §2

[7] = system: Staphylococcus epidermidis; conditions: X = Staphylococcus epidermidis, Laborstämme; step = concentration with no visible growth; read-out: Hemmkonzentration nach Verdünnung (Verdünnungsreihe) (converted)
Text: as §1, §2

Staphylococcus aureus = conditions: IX = Staphylococcus aureus, Laborstämme; step = concentration with no visible growth; read-out: Hemmkonzentration nach Verdünnung (Verdünnungsreihe) (converted)
Text: as §1, §2

| SMILES | MIC (Proteus vulgaris OX 19) | MIC [1] | MIC [2] | MIC (Enterokokken) | MIC [3] | MIC (Escherichia coli) | MIC [4] | MIC [5] | MIC (Citrobacter freudii) | MIC (Bacillus subtilis SG 119) | MIC (Enterobacter cloacae) | MIC [6] | MIC [7] | MIC (Staphylococcus aureus) |
| --- | --- | --- | --- | --- | --- | --- | --- | --- | --- | --- | --- | --- | --- | --- |
| COc1ccc2ncc(C(=O)N[C@@H](C(=O)N[C@@H]3C(=O)N4[C@@H]3SC(C)(C)[C@@H]4C(=O)O)c3ccccc3)c(O)c2c1 [Beisp. 9, 6-[D-(-)-α-([4'-Hydroxy-6'-methoxy-chinolinoyl-3']-carboxamido)-α-phenylacetamido]-penicillansäure-Natriumsalz] | 0.39 µM (≈ 0.215 µg/mL) | 25 µM (≈ 13.8 µg/mL) | 1.56 µM (≈ 0.859 µg/mL) | 25 µM (≈ 13.8 µg/mL) | 1.56 µM (≈ 0.859 µg/mL) | 3.12 µM (≈ 1.72 µg/mL) | 1.56 µM (≈ 0.859 µg/mL) | 1.56 µM (≈ 0.859 µg/mL) | 25 µM (≈ 13.8 µg/mL) | 1.56 µM (≈ 0.859 µg/mL) | 25 µM (≈ 13.8 µg/mL) | 0.39 µM (≈ 0.215 µg/mL) | 6.25 µM (≈ 3.44 µg/mL) | 12.5 µM (≈ 6.88 µg/mL) |
| CC(C)COC(=O)Oc1c(C(=O)N[C@@H](C(=O)N[C@@H]2C(=O)N3[C@@H]2SC(C)(C)[C@@H]3C(=O)O)c2ccccc2)cnc2ccc(C(C)C)cc12 [Beisp. 11, 6-[D-(-)-α-([4'-Isobutoxycarbonyloxy-6'-isopropyl-chinolinoyl-3']-carboxamido)-α-phenylacetamido]-penicillansäure-Natriumsalz] | 0.78 µM (≈ 0.517 µg/mL) | 12.5 µM (≈ 8.28 µg/mL) | 3.12 µM (≈ 2.07 µg/mL) | 12.5 µM (≈ 8.28 µg/mL) | 3.12 µM (≈ 2.07 µg/mL) | 3.12 µM (≈ 2.07 µg/mL) | 3.12 µM (≈ 2.07 µg/mL) | 3.12 µM (≈ 2.07 µg/mL) | 12.5 µM (≈ 8.28 µg/mL) | 3.12 µM (≈ 2.07 µg/mL) | 12.5 µM (≈ 8.28 µg/mL) | 1.56 µM (≈ 1.03 µg/mL) | 12.5 µM (≈ 8.28 µg/mL) | 25 µM (≈ 16.6 µg/mL) |
| CCc1cc2c(OC(=O)OCC(C)C)c(C(=O)N[C@@H](C(=O)N[C@@H]3C(=O)N4[C@@H]3SC(C)(C)[C@@H]4C(=O)O)c3ccccc3)cnc2cc1CN1CCOCC1 [Beisp. 14, 6-[D-(-)-α-([4'-Isobutoxycarbonyloxy-6'-ethyl-7'-morpholinomethylen-chinolinoyl-3']-carboxamido)-α-phenylacetamido]-penicillansäure-Natriumsalz] | 0.2 µM (≈ 0.15 µg/mL) | 6.25 µM (≈ 4.67 µg/mL) | 0.78 µM (≈ 0.583 µg/mL) | 6.25 µM (≈ 4.67 µg/mL) | 1.56 µM (≈ 1.17 µg/mL) | 0.78 µM (≈ 0.583 µg/mL) | 0.78 µM (≈ 0.583 µg/mL) | 0.78 µM (≈ 0.583 µg/mL) | 3.12 µM (≈ 2.33 µg/mL) | 6.25 µM (≈ 4.67 µg/mL) | 3.12 µM (≈ 2.33 µg/mL) | 0.78 µM (≈ 0.583 µg/mL) | 3.12 µM (≈ 2.33 µg/mL) | 3.12 µM (≈ 2.33 µg/mL) |
| CCc1cc2c(OC(=O)OCC(C)C)c(C(=O)N[C@@H](C(=O)N[C@@H]3C(=O)N4[C@@H]3SC(C)(C)[C@@H]4C(=O)O)c3ccccc3)cnc2cc1COc1ccc(C(C)=O)cc1 [Beisp. 15, 6-[D-(-)-α-([4'-Isobutoxycarbonyloxy-6'-ethyl-7'-(4''-acetyl)-phenoxymethylen-chinolinoyl-3']-carboxamido)-α-phenylacetamido]-penicillansäure-Natriumsalz] | 0.39 µM (≈ 0.311 µg/mL) | 3.12 µM (≈ 2.49 µg/mL) | 0.78 µM (≈ 0.622 µg/mL) | 6.25 µM (≈ 4.98 µg/mL) | 1.56 µM (≈ 1.24 µg/mL) | 1.56 µM (≈ 1.24 µg/mL) | 0.78 µM (≈ 0.622 µg/mL) | 0.78 µM (≈ 0.622 µg/mL) | 3.12 µM (≈ 2.49 µg/mL) | 3.12 µM (≈ 2.49 µg/mL) | 3.12 µM (≈ 2.49 µg/mL) | 3.12 µM (≈ 2.49 µg/mL) | 3.12 µM (≈ 2.49 µg/mL) | 6.25 µM (≈ 4.98 µg/mL) |
| CCc1cc2c(OC(=O)OCC(C)C)c(C(=O)N[C@@H](C(=O)N[C@@H]3C(=O)N4[C@@H]3SC(C)(C)[C@@H]4C(=O)O)c3ccccc3)cnc2cc1COc1ccc(Cl)c(C)c1 [Beisp. 17, 6-[D-(-)-α-([4'-Isobutoxycarbonyloxy-6'-ethyl-7'-(3''-methyl-4''-chlor)-phenoxymethylen-chinolinoyl-3']-carboxamido)-α-phenylacetamido]-penicillansäure-Natriumsalz] | 0.78 µM (≈ 0.627 µg/mL) | 6.25 µM (≈ 5.02 µg/mL) | 1.56 µM (≈ 1.25 µg/mL) | 25 µM (≈ 20.1 µg/mL) | 3.12 µM (≈ 2.51 µg/mL) | 1.56 µM (≈ 1.25 µg/mL) | 0.39 µM (≈ 0.313 µg/mL) | 1.56 µM (≈ 1.25 µg/mL) | 6.25 µM (≈ 5.02 µg/mL) | 1.56 µM (≈ 1.25 µg/mL) | 6.25 µM (≈ 5.02 µg/mL) | 6.25 µM (≈ 5.02 µg/mL) | 6.25 µM (≈ 5.02 µg/mL) | 25 µM (≈ 20.1 µg/mL) |
| CCc1cc2c(OC(=O)OCC(C)C)c(C(=O)N[C@@H](C(=O)N[C@@H]3C(=O)N4[C@@H]3SC(C)(C)[C@@H]4C(=O)O)c3ccccc3)cnc2cc1COC [Beisp. 18, 6-[D-(-)-α-([4'-Isobutoxycarbonyloxy-6'-ethyl-7'-methoxymethylen-chinolinoyl-3']-carboxamido)-α-phenylacetamido]-penicillansäure-Natriumsalz] | 0.39 µM (≈ 0.27 µg/mL) | 6.25 µM (≈ 4.33 µg/mL) | 1.56 µM (≈ 1.08 µg/mL) | 25 µM (≈ 17.3 µg/mL) | 3.12 µM (≈ 2.16 µg/mL) | 1.56 µM (≈ 1.08 µg/mL) | 0.78 µM (≈ 0.54 µg/mL) | 3.12 µM (≈ 2.16 µg/mL) | 6.25 µM (≈ 4.33 µg/mL) | 1.56 µM (≈ 1.08 µg/mL) | 6.25 µM (≈ 4.33 µg/mL) | 0.78 µM (≈ 0.54 µg/mL) | 6.25 µM (≈ 4.33 µg/mL) | 0.39 µM (≈ 0.27 µg/mL) |
| COc1cc2ncc(C(=O)N[C@@H](C(=O)N[C@@H]3C(=O)N4[C@@H]3SC(C)(C)[C@@H]4C(=O)O)c3ccccc3)c(OC(=O)OCC(C)C)c2cc1OC [Beisp. 20, 6-[D-(-)-α-([4'-Isobutoxycarbonyloxy-6',7'-dimethoxychinolinoyl-3']-carboxamido)-α-phenylacetamido]-penicillansäure-Natriumsalz] | 0.39 µM (≈ 0.265 µg/mL) | 12.5 µM (≈ 8.51 µg/mL) | 1.56 µM (≈ 1.06 µg/mL) | 12.5 µM (≈ 8.51 µg/mL) | 3.12 µM (≈ 2.12 µg/mL) | 3.12 µM (≈ 2.12 µg/mL) | 1.56 µM (≈ 1.06 µg/mL) | 6.25 µM (≈ 4.25 µg/mL) | 12.5 µM (≈ 8.51 µg/mL) | 1.56 µM (≈ 1.06 µg/mL) | 12.5 µM (≈ 8.51 µg/mL) | 0.39 µM (≈ 0.265 µg/mL) | 6.25 µM (≈ 4.25 µg/mL) | 25 µM (≈ 17 µg/mL) |
| CCc1cc2c(OC(=O)OCC(C)C)c(C(=O)N[C@@H](C(=O)N[C@@H]3C(=O)N4[C@@H]3SC(C)(C)[C@@H]4C(=O)O)c3ccccc3)cnc2cc1COC(C)C [Beisp. 21, 6-[D-(-)-α-([4'-Isobutoxycarbonyloxy-6'-ethyl-7'-isopropoxymethylen-chinolinoyl-3']-carboxamido)-α-phenylacetamido]-penicillansäure-Natriumsalz] | 0.39 µM (≈ 0.281 µg/mL) | 6.25 µM (≈ 4.51 µg/mL) | 1.56 µM (≈ 1.12 µg/mL) | 12.5 µM (≈ 9.01 µg/mL) | 3.12 µM (≈ 2.25 µg/mL) | 1.56 µM (≈ 1.12 µg/mL) | 0.78 µM (≈ 0.562 µg/mL) | 1.56 µM (≈ 1.12 µg/mL) | 6.25 µM (≈ 4.51 µg/mL) | 1.56 µM (≈ 1.12 µg/mL) | 6.25 µM (≈ 4.51 µg/mL) | 0.78 µM (≈ 0.562 µg/mL) | 6.25 µM (≈ 4.51 µg/mL) | 12.5 µM (≈ 9.01 µg/mL) |
